Drawing on patent publication US11091428B2 (HAPLOGEN GMBH, priority 2016, dated 2021), this text covers IC50 and EC50 for 33 compounds.

One assay addresses T1, PLA2G16 (Homo sapiens, UniProt P53816).
T1 construct: Hexa-His (N); made in house; host or cells: E. coli BL21(DE3)
T1 sequence (P53816 1-162): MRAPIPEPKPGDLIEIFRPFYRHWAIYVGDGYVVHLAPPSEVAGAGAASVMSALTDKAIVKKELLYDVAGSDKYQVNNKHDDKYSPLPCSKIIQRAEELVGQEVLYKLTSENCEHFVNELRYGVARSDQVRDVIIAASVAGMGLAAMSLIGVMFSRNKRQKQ
The assay can be described thus: Enzyme activity assay for PLA2G16 (Red/Green BODIPY PC-A2 fluorescence). The format is biochemical. As to conditions: His-tagged PLA2G16, 4 min pre-incubation, 2 nM to 50 μM; read-out: IC50 values of the compounds determined in the enzyme activity assay for PLA2G16. In a few lines:
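N-His-tagged human PLA2G16 from E. coli, Ni-NTA purified. Pre-incubated 4 min with compound (2 nM–50 μM final) in pH 8.5 Tris/NaCl buffer with 5 mM glutathione, then BODIPY PC-A2 in DOPC/DOPG/cholesterol vesicles added. Fluorescence (ex 480/em 530 nm) increase over 10 min taken as activity; IC50 by non-linear regression.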

The subject of assay [1] is picornaviruses (CVB1, HRV-A2, HRV-A23, EV-68). The assay can be described thus: Anti-picornavirus cytopathic effect (CPE) reduction assay on HeLa H1 cells. In kind it is cell-based. The settings on record: Enterovirus B, HeLa H1 cells, 48 h, category from averaging the EC50 values from four picornaviruses (CVB1, HRV-A2, HRV-A23, EV68), read-out: EC50 values of the compounds determined in the anti-picornavirus assay. The procedure, abridged: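 HeLa H1 cells pre-treated 2 h with serially diluted compound in DMEM/2% FBS, then infected at an MOI giving full CPE in 2 days. After 48 h at 37° C, viability read by CellTiterBlue fluorescence (ex 560/em 590 nm), normalised to infected and uninfected vehicle controls; EC50 by non-linear regression, category from mean of four viruses.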

Read-outs that look alike come from different tables or passages of the source.

In the case of `CC(C)C(OCC1CCOCC1)C(=O)C(=O)NCC1CC1` (stereo not drawn) [FP 137, N-(Cyclopropylmethyl)-4-methyl-3-[(oxan-4-yl)methoxy]-2-oxopentanamide], the IC50 on PLA2G16 was < 1000 nM. In addition, in assay [1] (HeLa H1, 48 h), the EC50 was > 10000 nM.
For the compound `CC(C)CC(C(=O)C(=O)NCC1CC1)N(C=O)CC1CC1` (stereo not drawn) [FP 62, N-(Cyclopropylmethyl)-3-[N-(cyclopropylmethyl)formamido]-5-methyl-2-oxohexanamide], the IC50 at PLA2G16 was < 1000 nM. Moreover, the EC50 in assay [1] (HeLa H1, 48 h) is < 1000 nM.
In the case of `CC(C)CNC(=O)C(=O)C(C)N(C=O)CC1CC1` (stereo not drawn) [FP 16, 3-[N-(cyclopropylmethyl)formamido]-N-(2-methylpropyl)-2-oxobutanamide], on PLA2G16, the IC50 is < 1000 nM. Further, the EC50 in assay [1] (HeLa H1, 48 h) lay in the range of 1000 to 10000 nM.
As to `CC(NC(=O)C1CCC(F)(F)CC1)C(=O)C(=O)NCC1CC1` (stereo not drawn) [FP 173, N-(Cyclopropylmethyl)-3-[(4,4-difluorocyclohexyl)formamido]-2-oxobutanamide], the IC50 on PLA2G16 lay within 1000 to 10000 nM. Further, the EC50 in assay [1] (HeLa H1, 48 h) is > 10000 nM.
On to `CC(=O)NCCCCCCNC(=O)C(=O)C1CCC(=O)N1Cc1ccccc1` (stereo not drawn) [FP 328, 2-(1-Benzyl-5-oxopyrrolidin-2-yl)-N-(6-acetamidohexyl)-2-oxoacetamide], for which, on PLA2G16, the IC50 was < 1000 nM. For the same compound, the EC50 in assay [1] (HeLa H1, 48 h) was 1000 to 10000 nM.
The like results for `COc1ccccc1N(C=O)C(C)C(=O)C(=O)NC(C)(C)C` (stereo not drawn) [FP 75, N-tert-Butyl-3-[N-(2-methoxyphenyl)formamido]-2-oxobutanamide] were, in that order, < 1000 nM and 1000 to 10000 nM.
In the case of `CC(C)C(C(=O)C(=O)NCC1CC1)N(C=O)CC1CCOCC1` (stereo not drawn) [FP 34, N-(Cyclopropylmethyl)-4-methyl-3-{N-[(oxan-4-yl)methyl]formamido}-2-oxopentanamide], the IC50 on PLA2G16 was < 1000 nM. The EC50 in assay [1] (HeLa H1, 48 h) was 1000 to 10000 nM.
Regarding `CC(C)S(=O)(=O)N1CCC(NC(=O)C(=O)[C@H]2CCC(=O)N2Cc2ccccc2)CC1` [FP 323, 2-[(2R)-1-Benzyl-5-oxopyrrolidin-2-yl]-2-oxo-N-[1-(propane-2-sulfonyl)piperidin-4-yl]acetamide], the IC50 on PLA2G16 was < 1000 nM. Besides, the EC50 in assay [1] (HeLa H1, 48 h) was < 1000 nM.
For `CC(NC(=O)c1ccc(Cl)cc1)C(=O)C(=O)NCC1CC1` (stereo not drawn) [FP 170, 3-[(4-Chlorophenyl)formamido]-N-(cyclopropylmethyl)-2-oxobutanamide], the IC50 on PLA2G16 was < 1000 nM. In assay [1] (HeLa H1, 48 h), the EC50 was in the range of 1000 to 10000 nM.
Turning to `Cn1nccc1CNC(=O)C(=O)[C@H]1CCC(=O)N1Cc1ccccc1` [FP 296, 2-[(2R)-1-Benzyl-5-oxopyrrolidin-2-yl]-N-[(1-methyl-1H-pyrazol-5-yl)methyl]-2-oxoacetamide], the IC50 on PLA2G16 is < 1000 nM. In addition, the concentration giving a half-maximal response (EC50) in assay [1] (HeLa H1, 48 h) was in the range of 1000 to 10000 nM.
Regarding `COc1ccccc1N(C=O)C(C)C(=O)C(=O)NCc1cccc(Cl)c1` (stereo not drawn) [FP 1, N-[(3-Chlorophenyl)methyl]-3-[N-(2-methoxyphenyl)formamido]-2-oxobutanamide], the IC50 on PLA2G16 was < 1000 nM. The EC50 in assay [1] (HeLa H1, 48 h) was < 1000 nM.
Take `CC(OCC1CCOCC1)C(=O)C(=O)NCC1CCCC1` (stereo not drawn) [FP 132, N-(Cyclopentylmethyl)-3-[(oxan-4-yl)methoxy]-2-oxobutanamide]: at PLA2G16, the IC50 was < 1000 nM. Also, in assay [1] (HeLa H1, 48 h), the EC50 is < 1000 nM.
Turning to `C[C@H]1CC(=O)N(Cc2ccccc2)[C@H]1C(=O)C(=O)NC1CC1` (single isomer, unassigned) [FP 341], the IC50 at PLA2G16 is < 1000 nM. Also, in assay [1] (HeLa H1, 48 h), the EC50 lay in the range of 1000 to 10000 nM.
For `O=CN(Cc1ccccc1)[C@@H](Cc1cn(C(c2ccccc2)(c2ccccc2)c2ccccc2)cn1)C(=O)C(=O)NCC1CCCCC1` [FP 116, (3S)-3-(N-Benzylformamido)-N-(cyclohexylmethyl)-2-oxo-4-[1-(triphenylmethyl)-1H-imidazol-4-yl]butanamide], the IC50 at PLA2G16 was < 1000 nM. Also, the EC50 in assay [1] (HeLa H1, 48 h) is < 1000 nM.
`Cc1nc(C)n(CCCNC(=O)C(=O)C2CCC(=O)N2Cc2ccccc2)n1` (stereo not drawn) [FP 231, 2-(1-Benzyl-5-oxopyrrolidin-2-yl)-N-[3-(3,5-dimethyl-1H-1,2,4-triazol-1-yl)propyl]-2-oxoacetamide]: the IC50 at PLA2G16 was < 1000 nM. Besides, the EC50 in assay [1] (HeLa H1, 48 h) is > 10000 nM.
Consider `Cc1ccccc1CN1C(=O)CCC1C(=O)C(=O)NC1CC1` (stereo not drawn) [FP 261, N-Cyclopropyl-2-{1-[(2-methylphenyl)methyl]-5-oxopyrrolidin-2-yl}-2-oxoacetamide], for which, on PLA2G16, the IC50 is < 1000 nM. Moreover, the EC50 in assay [1] (HeLa H1, 48 h) is 1000 to 10000 nM.
The like results for `CC(NS(=O)(=O)c1ccccc1)C(=O)C(=O)NCC1CCCCC1` (stereo not drawn) [FP 218, 3-Benzenesulfonamido-N-(cyclohexylmethyl)-2-oxobutanamide] were, in that order, < 1000 nM and 1000 to 10000 nM.
Turning to `COc1ccccc1N(C=O)C(C)C(=O)C(=O)NCC(C)(C)C` (stereo not drawn) [FP 101, N-(2,2-Dimethylpropyl)-3-[N-(2-methoxyphenyl)formamido]-2-oxobutanamide], the IC50 at PLA2G16 is < 1000 nM. Besides, the EC50 in assay [1] (HeLa H1, 48 h) lay in the range of 1000 to 10000 nM.
As to `O=C(NC1CC1)C(=O)C1CCC(=O)N1Cc1ccccc1` (stereo not drawn), on PLA2G16, the IC50 is < 1000 nM. In assay [1] (CVB1|EV68|HRVA2|HRVA23, HeLa H1, 48 h), the EC50 lay within 1000 to 10000 nM.
As for `CC(C)CC(C(=O)C(N)=O)N(C=O)Cc1ccccc1` (stereo not drawn) [FP 199, 3-(N-Benzylformamido)-5-methyl-2-oxohexanamide], the IC50 on PLA2G16 is < 1000 nM. In addition, in assay [1] (HeLa H1, 48 h), the EC50 is > 10000 nM.
As for `CC(C(=O)C(=O)NCC1CC1)N(C)C(=O)C1CCCCC1` (stereo not drawn) [FP 150, 3-(1-Cyclohexyl-N-methylformamido)-N-(cyclopropylmethyl)-2-oxobutanamide], at PLA2G16, the IC50 was < 1000 nM. The EC50 in assay [1] (HeLa H1, 48 h) is 1000 to 10000 nM.
In the case of `CCOCCOCCNC(=O)C(=O)[C@H]1CCC(=O)N1Cc1ccccc1` [FP 302, 2-[(2R)-1-Benzyl-5-oxopyrrolidin-2-yl]-N-[2-(2-ethoxyethoxy)ethyl]-2-oxoacetamide], at PLA2G16, the IC50 was < 1000 nM. Also, the EC50 in assay [1] (HeLa H1, 48 h) was 1000 to 10000 nM.
Take `CC(NC(=O)c1ccccc1F)C(=O)C(=O)NCC1CC1` (stereo not drawn) [FP 164, N-(Cyclopropylmethyl)-3-[(2-fluorophenyl)formamido]-2-oxobutanamide]: the IC50 on PLA2G16 was < 1000 nM. The EC50 in assay [1] (HeLa H1, 48 h) lay in the range of 1000 to 10000 nM.
Regarding `CC(C)C(=O)NCCNC(=O)C(=O)[C@H]1CCC(=O)N1Cc1ccccc1` [FP 331, N-(2-{2-[(2R)-1-Benzyl-5-oxopyrrolidin-2-yl]-2-oxoacetamido}ethyl)-2-methyl-propanamide], at PLA2G16, the IC50 is < 1000 nM. Also, the EC50 in assay [1] (HeLa H1, 48 h) was in the range of 1000 to 10000 nM.
For the compound `O=C(NC1CC(F)(F)C1)C(=O)[C@H]1CCC(=O)N1Cc1ccccc1` [FP 268, 2-[(2R)-1-Benzyl-5-oxopyrrolidin-2-yl]-N-(3,3-difluorocyclobutyl)-2-oxoacetamide], the IC50 at PLA2G16 is < 1000 nM. For the same compound, in assay [1] (HeLa H1, 48 h), the EC50 is < 1000 nM.
As to `CCCC(NC(=O)c1ccccc1)C(=O)C(=O)NC1CC1` (stereo not drawn) [FP 184, N-Cyclopropyl-2-oxo-3-(phenylformamido)hexanamide], the IC50 at PLA2G16 was < 1000 nM. Moreover, in assay [1] (HeLa H1, 48 h), the EC50 is > 10000 nM.
On to `COc1ccccc1C(=O)NC(C)C(=O)C(=O)NCC1CC1` (stereo not drawn) [FP 168, N-(Cyclopropylmethyl)-3-[(2-methoxyphenyl)formamido]-2-oxobutanamide], for which, on PLA2G16, the IC50 was < 1000 nM. For the same compound, in assay [1] (HeLa H1, 48 h), the EC50 lay in the range of 1000 to 10000 nM.
In the case of `CC(C)CC(C(=O)C(=O)NCC1CC1)N(C=O)C[C@H]1CCOC1` (stereo partly drawn) [FP 65, N-(Cyclopropylmethyl)-5-methyl-2-oxo-3-(N-{[(3R)-oxolan-3-yl]methyl}formamido) hexanamide], at PLA2G16, the IC50 is < 1000 nM. Moreover, the EC50 in assay [1] (HeLa H1, 48 h) was in the range of 1000 to 10000 nM.
With `O=CN(Cc1ccccc1)[C@@H](Cc1c[nH]cn1)C(=O)C(=O)NCC1CC1` [FP 119, (3S)-3-(N-Benzylformamido)-N-(cyclopropylmethyl)-4-(1H-imidazol-4-yl)-2-oxobutanamide], on PLA2G16, the IC50 is < 1000 nM. For the same compound, the EC50 in assay [1] (HeLa H1, 48 h) was > 10000 nM.
In the case of `CCC(NC(=O)CN1CCCCC1)C(=O)C(=O)NCC1CCCCC1` (stereo not drawn) [FP 213, N-(Cyclohexylmethyl)-2-oxo-3-[2-(piperidin-1-yl)acetamido]pentanamide], on PLA2G16, the IC50 is < 1000 nM. Moreover, the 50% effective concentration (EC50) in assay [1] (HeLa H1, 48 h) is 1000 to 10000 nM.
In the case of `CC(NC(=O)c1ccccc1Cl)C(=O)C(=O)NCC1CC1` (stereo not drawn) [FP 169, 3-[(2-Chlorophenyl)formamido]-(cyclopropylmethyl)-2-oxobutanamide], the IC50 on PLA2G16 is < 1000 nM. For the same compound, the EC50 in assay [1] (HeLa H1, 48 h) lay in the range of 1000 to 10000 nM.
Take `CC(C(=O)C(=O)NCC1CC1)N(Cc1ccccc1)S(C)(=O)=O` (stereo not drawn) [FP 222, 3-(N-Benzylmethanesulfonamido)-N-(cyclopropylmethyl)-2-oxobutanamide]: the IC50 on PLA2G16 was < 1000 nM. In addition, the EC50 in assay [1] (HeLa H1, 48 h) was > 10000 nM.
The like results for `C[C@@H]1C[C@H]1NC(=O)C(=O)[C@H]1CCC(=O)N1Cc1ccccc1` [FP 271, 2-[(2R)-1-Benzyl-5-oxopyrrolidin-2-yl]-N-[(1R,2R)-2-methylcyclopropyl]-2-oxoacetamide] were, in that order, < 1000 nM and < 1000 nM.
